This is an account of results in publication PMC7067379, “Mapping the S1 and S1’ subsites of cysteine proteases with new dipeptidyl nitrile inhibitors as trypanocidal agents” (PLoS Neglected Tropical Diseases, 2020).

A short description of data set [1]: Mammalian cytotoxicity assay (MTT).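 Note: Read-out is absorbance at 570 nm of formazan taken up in DMSO.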 Type of data set: cell-based. The note with it: rhesus monkey, LLCMK2 cells.
The next data set concerns LLCMK2 cells. As to the kind of experiment: Mammalian cytotoxicity assay (MTT).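 Note: Read-out is absorbance at 570 nm of formazan taken up in DMSO.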 Type of data set: cell-based. The note with it: LLCMK2, 72 h, MTT; Table 2.
The next data set deals with cathepsin L (CatL) (Homo sapiens, UniProt P07711). The experiment in a line: Cathepsin L enzyme inhibition. The format is biochemical. Conditions: for remaining activity at 10 µM: replicates = 2, n.i. = no inhibition observed at 10 μM; for Ki: SD lower than 15%, read-out: pKi CatL (converted).
Data set [2] has as its target Leishmania mexicana CPB (LmCPB) (Leishmania mexicana, UniProt P36400). As to the kind of experiment: LmCPB enzyme inhibition. Type of data set: biochemical. Conditions: for remaining activity at 10 µM: replicates = 2; for Ki: SD lower than 15%, read-out: pKi LmCPB (converted). The protocol:
(§1) Enzyme inhibition studies for Cz and LmCPB were performed as previously described for Cz. The experimental procedures are described in the Supporting Information (see chapter S3). Cathepsins B, L, S were assayed as reported.

A further data set concerns the target cathepsin B (CatB) (Homo sapiens, UniProt P07858). As to the kind of experiment: Cathepsin B enzyme inhibition. The note with it: 10 μM; replicates = 2; n.i. = no inhibition observed at 10 μM. Type of data set: biochemical.
Another data set deals with recombinant cruzain (Cz) (Trypanosoma cruzi, UniProt P25779). As to the kind of experiment: Cruzain enzyme inhibition. Type of data set: biochemical. Conditions: for Ki: SD lower than 15%, read-out: pKi Cz (converted). How it is done: as §1
The subject of data set [3] is T. cruzi Tulahuen LacZ strain, intracellular amastigote forms. The experiment in a line: In vitro trypanocidal activity on intracellular amastigote forms (Tulahuen strain). The note with it: for EC50: Trypanosoma cruzi, TULAHUEN; for SI (selective index): from EC50 (T. cruzi) and CC50 (LLCMK2). The format is cell-based, Trypanosoma cruzi. A digest of the protocol: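 LLCMK2 cells infected with Tulahuen LacZ trypomastigotes for 24 h at 37°C, 5% CO2; extracellular parasites washed away. Amastigote-infected cells exposed 72 h to compound, 1.95–250 μM serial dilutions, in DMSO. β-galactosidase read-out with CPRG substrate (400 μM, 0.3% Triton X-100, pH 7.4).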

Another data set has as its target cathepsin S (CatS) (Homo sapiens, UniProt P25774). The experiment in a line: Cathepsin S enzyme inhibition. Type of data set: biochemical. The note with it: for Ki: SD lower than 15%, read-out: pKi CatS (converted). The protocol:
as §1

Data set [4] deals with T1, Human recombinant cathepsin K (Homo sapiens, UniProt P43235).
T1 sequence (P43235 115-329): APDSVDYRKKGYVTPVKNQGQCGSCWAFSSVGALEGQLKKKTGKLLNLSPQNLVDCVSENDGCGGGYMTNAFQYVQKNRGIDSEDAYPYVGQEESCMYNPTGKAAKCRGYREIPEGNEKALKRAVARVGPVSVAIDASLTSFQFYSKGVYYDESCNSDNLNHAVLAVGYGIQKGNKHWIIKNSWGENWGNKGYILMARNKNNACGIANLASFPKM
As to the kind of experiment: Cathepsin K assay. Type of data set: biochemical. Conditions: for remaining activity at 10 µM: replicates = 2, n.i. = no inhibition observed at 10 μM, read-out: remaining activity (%) at 10 μM, CatK; for Ki: SD lower than 15%, read-out: pKi CatK (converted). A digest of the protocol:
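Recombinant human cathepsin K, pre-activated 30 min at 37 °C in pH 5.0 citrate buffer with 5 mM DTT and CHAPS, was used at 1.73 ng/mL final. Reaction was started by adding enzyme to Z-Leu-Arg-AMC plus inhibitor (2% DMSO). AMC fluorescence (ex 360/em 440 nm) was followed 20 min at 25 °C.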

For another data set, the system named is T. cruzi. Set-up: method as in PMID 14580960. The note with it: dogs ref 10, 11; cited from earlier work.
Another data set relates to T. cruzi infection. The arrangement: method as in PMID 14580960. Conditions: mice ref 10, 11; cited from earlier work.
The conditions of data set [5]: dog, in vivo; cited from earlier work.
The mark [6] stands for this setting: LLCMK2, 72 h, MTT, Table 2, read-out: CC50 cytotoxicity.
Where [7] appears, read: 72 h, amastigote, Tulahuen strain, 72 h, Table 2, read-out: EC50 trypanocidal activity.
The mark [8] stands for this setting: T. cruzi amastigote form, S1 Table, read-out: pEC50 (converted).
[9] abbreviates: 10 μM, replicates = 2, n.i. = no inhibition observed at 10 μM.

Read-outs that look alike come from different tables or passages of the source.

recombinant cruzain (Cz), sequence (P25779 123-337): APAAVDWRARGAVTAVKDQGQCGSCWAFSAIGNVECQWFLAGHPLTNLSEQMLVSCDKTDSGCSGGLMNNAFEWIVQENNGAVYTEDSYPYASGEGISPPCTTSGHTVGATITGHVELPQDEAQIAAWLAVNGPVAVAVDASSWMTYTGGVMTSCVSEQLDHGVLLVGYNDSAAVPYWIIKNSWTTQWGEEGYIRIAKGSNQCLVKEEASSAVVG
cathepsin L (CatL), sequence (P07711 114-333): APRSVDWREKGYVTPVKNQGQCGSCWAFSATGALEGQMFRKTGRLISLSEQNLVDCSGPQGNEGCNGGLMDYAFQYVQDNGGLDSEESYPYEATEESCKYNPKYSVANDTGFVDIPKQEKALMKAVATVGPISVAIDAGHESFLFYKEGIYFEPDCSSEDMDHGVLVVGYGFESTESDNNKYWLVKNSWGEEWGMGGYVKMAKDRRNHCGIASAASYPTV
Leishmania mexicana CPB (LmCPB), sequence (P36400 126-443): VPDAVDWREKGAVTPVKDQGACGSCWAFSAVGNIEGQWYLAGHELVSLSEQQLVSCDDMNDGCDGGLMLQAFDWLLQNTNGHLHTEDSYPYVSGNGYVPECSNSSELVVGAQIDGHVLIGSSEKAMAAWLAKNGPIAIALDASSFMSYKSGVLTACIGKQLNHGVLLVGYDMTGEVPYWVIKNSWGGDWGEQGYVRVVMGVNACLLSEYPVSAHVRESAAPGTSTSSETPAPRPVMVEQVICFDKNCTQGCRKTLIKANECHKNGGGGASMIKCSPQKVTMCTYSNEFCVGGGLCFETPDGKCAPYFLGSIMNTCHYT
cathepsin S (CatS), sequence (P25774 115-331): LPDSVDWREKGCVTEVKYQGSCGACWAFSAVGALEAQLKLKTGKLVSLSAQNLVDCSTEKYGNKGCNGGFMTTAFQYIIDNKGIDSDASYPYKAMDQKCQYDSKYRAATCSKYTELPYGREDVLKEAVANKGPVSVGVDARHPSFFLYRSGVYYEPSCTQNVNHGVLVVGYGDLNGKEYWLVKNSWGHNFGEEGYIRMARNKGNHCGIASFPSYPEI

A word on the CC50: it is the concentration giving 50% cytotoxicity. Broadly, the remaining activity is the activity still measured, relative to the control. One may read the melting point as the temperature, or range, at which the solid turns liquid. `C[C@H](OCc1ccccc1)[C@H](C#N)NC(=O)[C@H](Cc1ccccc1)NC(=O)c1cc(C(C)(C)C)nn1C` [Compound 57, N-((S)-1-(((1S,2S)-2-(Benzyloxy)-1-cyanopropyl)amino)-1-oxo-3-phenylpropan-2-yl)-3-(tert-butyl)-1-methyl-1H-pyrazole-5-carboxamide]: the melting point fell in the range of 123 to 124 °C. Further, the CC50 at 72 h in data set [1] (setting [6]) is around 125 µM. Further, in data set [1] (S1 Table, maximum concentration used 250 µM, read-out: CC50), the CC50 at 72 h came to 141 µM. The compound also had a CC50 in the data set with LLCMK2 cells above 100 µM. Besides, the remaining activity at 10 µM at cathepsin L (CatL) was determined as 85%. This compound also gave a remaining activity at 10 µM in [2] of 72%. Further, the “remaining activity (%) at 10 μM, CatB” value at cathepsin B (CatB) is “n.i.^c”. Also, on recombinant cruzain (Cz) (10 μM, replicates = 2), the remaining activity at 10 µM came to 75%. The EC50 in data set [3] (setting [7]) worked out at 4.3 ± 0.32 µM. Further, in [3] (setting [8]), the EC50 was 3.98 µM. In addition, the “remaining activity (%) at 10 μM, CatS” value at cathepsin S (CatS) (setting [9]) is reported as “n.i.^c”. The remaining activity at 10 µM in data set [4] is 97%.
`C[C@H](O)[C@H](C#N)NC(=O)[C@H](Cc1ccccc1)NC(=O)c1cc(C(C)(C)C)nn1C` [Compound 66, 3-(tert-Butyl)-N-((S)-1-(((1S,2S)-1-cyano-2-hydroxypropyl)amino)-1-oxo-3-phenylpropan-2-yl)-1-methyl-1H-pyrazole-5-carboxamide] had a melting point of 145 to 147 °C. Besides, the CC50 at 72 h in [1] (setting [6]) was above 100 µM. Besides, the Ki at cathepsin L (CatL) was 2.51 µM. Besides, the Ki in data set [2] was 15.8 µM. This compound registered a remaining activity at 10 µM on cathepsin B (CatB) of 89%. On recombinant cruzain (Cz), the Ki is 3.98 µM. For the same compound, the EC50 in data set [3] (setting [7]) was 30 ± 2.71 µM. In data set [3] (setting [8]), the EC50 is 31.6 µM. In addition, the “SI (selective index)” value in data set [3] (Table 2) is reported as above 3.3. On cathepsin S (CatS), the Ki is 20 µM. The remaining activity at 10 µM in data set [4] was determined as 81%.
As for `CC(C)C[C@H](NC(=O)c1cc(C(C)(C)C)nn1C)C(=O)N[C@H](C#N)[C@@H](C)O` [Compound 67, 3-(tert-Butyl)-N-((S)-1-(((1R,2R)-1-cyano-2-hydroxypropyl)amino)-4-methyl-1-oxopentan-2-yl)-1-methyl-1H-pyrazole-5-carboxamide], the melting point is 118 to 119 °C. Further, the CC50 at 72 h in [1] (setting [6]) is above 100 µM. Besides, at cathepsin L (CatL), the Ki is 0.1 µM. In data set [2], the Ki was 0.2 µM. On cathepsin B (CatB), this compound had a remaining activity at 10 µM of 92%. Also, the Ki at recombinant cruzain (Cz) was 0.0794 µM. Moreover, the EC50 in [3] (setting [7]) was determined as 24.4 ± 2.36 µM. Besides, in data set [3] (setting [8]), the EC50 was 25.1 µM. Also, in data set [3] (Table 2), the “SI (selective index)” value is reported as above 4.1. Also, at cathepsin S (CatS), the Ki is 10 µM. For the same compound, the Ki in data set [4] was 0.0158 µM.
Regarding `CC(C)C[C@H](NC(=O)c1cc(C(C)(C)C)nn1C)C(=O)N[C@@H](C#N)[C@H](C)O` [Compound 68, 3-(tert-Butyl)-N-((S)-1-(((1S,2S)-1-cyano-2-hydroxypropyl)amino)-4-methyl-1-oxopentan-2-yl)-1-methyl-1H-pyrazole-5-carboxamide], the melting point lay within 111 to 113 °C. Also, the CC50 at 72 h in data set [1] (setting [6]) was above 100 µM. The compound further displayed a remaining activity at 10 µM at cathepsin L (CatL) of 88%. The remaining activity at 10 µM in data set [2] turned out to be 54%. Further, the remaining activity at 10 µM at cathepsin B (CatB) turned out to be 93%. Moreover, the Ki on recombinant cruzain (Cz) is 3.98 µM. For the same compound, in data set [3] (setting [7]), the EC50 came to 16 ± 4 µM. In addition, the EC50 in data set [3] (S1 Table, maximum concentration used 250 µM, read-out: EC50 T. cruzi) amounted to 16.3 µM. Also, the EC50 in data set [3] (setting [8]) was 15.8 µM. Further, in data set [3] (Table 2), the “SI (selective index)” value is reported as above 6.3. For the same compound, the remaining activity at 10 µM on cathepsin S (CatS) (setting [9]) was 83%. For the same compound, the Ki in data set [4] was 7.94 µM.
Turning to `CN1CCN(C(=O)N[C@@H](Cc2ccccc2)C(=O)N[C@H](/C=C/S(=O)(=O)c2ccccc2)CCc2ccccc2)CC1` [Compound K777], the “effect on parasite growth” value in the data set with T. cruzi is “reduce parasite growth”. In addition, in the data set with T. cruzi infection, the “rescue from lethal infection” value is on record as “rescue mice of a lethal experimental T. cruzi infection”. The side effects result in data set [5] is “substantial side effects”.
